Experimental data: PMC11466185, “Mechanisms and efficacy of small molecule latency-promoting agents to inhibit HIV reactivation ex vivo” (JCI Insight, 2024)

System: HIV transcripts (TAR, LLTR, Pol, PolyA, TatRev)
Assay: Cell-associated HIV transcripts (RT-ddPCR) 6 days after anti-CD3/CD28 activation of PBMCs from ART-suppressed PWH
Type: cell-based
Details: DMSO+CD3/28 = 1, Fig 4B, C and D
Procedure: Next, we evaluated the ability of the candidate LPAs to sustain the inhibitory effects during a prolonged ex vivo culture. To this end, PBMCs were cultured in the presence of individual drugs in DMSO or in DMSO alone as control, activated (anti-CD3/CD28), and harvested after 6 days. […] However, we decided to test the drug on day 6 because extra cells were available from some study participants.
Each drug was tested in PBMCs from at least 6 ART-suppressed study participants (except for KRIBB11, n = 5). PBMCs were aliquoted into wells at 6 × 10^6 cells/well. After activation, the cells were cultured with antiretrovirals in the presence of individual drugs in DMSO or DMSO alone as control. All conditions were tested in the presence of CD3/28 T cell–activating beads, except for the unactivated DMSO condition. After 6 days, total cellular RNA was extracted, and the progression through different stages of HIV transcription was quantified by measuring the levels of initiated (TAR), 5′ elongated (LLTR), midtranscribed/unspliced (Pol), completed (PolyA), and multiply spliced (TatRev) HIV transcripts. (A) The levels of all HIV transcripts were normalized to 1 μg of total cellular RNA and expressed as a percentage of the activated DMSO control (% of activated DMSO). Medians are shown as well as the individual values per study participant in different colors. (B–D) The effect of each drug on HIV transcriptional progression after activation was analyzed by the ratio of one HIV transcript to another. Ratios are independent of HIV infection frequency or normalization to cell numbers. Shown are the proportion of (B) all HIV transcripts that are elongated (LLTR/TAR), (C) elongated HIV transcripts that are completed (PolyA/LLTR), and (D) completed transcripts that are multiply spliced (TatRev/PolyA). Medians and IQR are presented, along with the individual values per study participant in different colors. P values were calculated using Wilcoxon’s signed-rank test: *P < 0.05.
PBMCs were isolated from fresh venous blood from 16 ART-suppressed HIV-infected study participants using Ficoll density gradient centrifugation. The cells were seeded at 6 × 10^6 cells/well and cultured with antiretrovirals (nevirapine and indinavir) to prevent new infection. On the next day, PBMCs were activated with anti-CD3/CD28–coated beads (Invitrogen) in the presence of 20 U/mL IL-2 and individual drugs in DMSO or DMSO alone as a control. Since we were limited in the PBMC yield per study participant, different study participants were used for different experiments (such as the initial screen, dose response, different time points, and studies in activated vs. unstimulated cells). In addition, the yields of PBMCs were sometimes insufficient to test all drugs for a given question or experiment.
For quantification of cell-associated HIV transcripts, PBMCs were harvested either after 24 hours or after 6 days. The cell viabilities were measured by trypan blue staining; then the cells were pelleted by centrifuging at 300g for 6 minutes and stored at –80°C. For quantification of virion-associated HIV RNA, cell culture supernatant was collected from 6 × 10^6 PBMCs that were treated and activated for 6 days as described above. Residual cells and cellular debris were subsequently removed from the supernatant by differential centrifugation (300g for 6 minutes, then 20,000g for 10 minutes), and the supernatant was stored at –80°C.
Total cellular DNA and RNA were extracted in parallel using Trireagent (Molecular Research Center) according to the manufacturer’s instructions, except for study participants 2147 and 2461 (Figure 4), for whom DNA and RNA were extracted using the QIAGEN AllPrep DNA/RNA/miRNA Universal Kit with on-column DNase I treatment of the RNA and the manufacturer’s modification to enhance recovery of short transcripts.

Molecule | LLTR/TAR (participant 150b) | PolyA/LLTR (participant 150b) | TatRev/PolyA (participant 150b) | LLTR/TAR (participant 1379) | PolyA/LLTR (participant 1379) | LLTR/TAR (participant 2256) | PolyA/LLTR (participant 2256) | LLTR/TAR (participant 2750) | PolyA/LLTR (participant 2750) | TatRev/PolyA (participant 2750) | LLTR/TAR (participant 5557) | PolyA/LLTR (participant 5557) | TatRev/PolyA (participant 5557) | LLTR/TAR (participant 2027) | PolyA/LLTR (participant 2027) | LLTR/TAR (participant 2147a) | PolyA/LLTR (participant 2147a) | TatRev/PolyA (participant 2147a) | PolyA/LLTR (participant 2161) | LLTR/TAR (participant 2461) | further results
mithramycin A | 3.173 | 0.3062 | 1.15 | 7.408 | 0.07562 | 1.969 | 0 | 4.292 | 1.638 | 0.3964 | 0.2056 | 46.0561 | 3.456 | – | – | – | – | – | – | – | TatRev/PolyA (participant 1379): 0; LLTR/TAR (participant 1713): 1.88; PolyA/LLTR (participant 1713): 1.25; TatRev/PolyA (participant 1713): 0; LLTR/TAR (participant 2147b): 0.4766; PolyA/LLTR (participant 2147b): 0.7007; TatRev/PolyA (participant 2147b): 0
O=c1c(O)c(-c2ccc(O)c(O)c2)oc2cc(O)cc(O)c12 [quercetin] | 0.7842 | 1.289 | 0.75 | – | – | 0.9386 | 0.8949 | – | – | – | – | – | – | 0.9301 | 0.981 | 0.08494 | 0.5196 | 0.8518 | 0.79 | 1.332 | TatRev/PolyA (participant 2027): 0.6894; TatRev/PolyA (participant 2161): 0.8634; TatRev/PolyA (participant 2747): 0
COc1ccc(-c2cc(=O)c3c(O)cc(O)c(-c4cc(-c5cc(=O)c6c(O)cc(O)cc6o5)ccc4OC)c3o2)cc1 [isoginkgetin] | 0.8798 | 1.092 | 1.01 | 1.373 | 0.4663 | 1.751 | 0.07578 | – | – | – | 0.8133 | 0.9591 | 0.5795 | 0.7253 | 0.8811 | 0.06726 | 1.437 | 0.8892 | 0.57 | 1.166 | LLTR/TAR (participant 2161): 0.6564; PolyA/LLTR (participant 2461): 0.2875; LLTR/TAR (participant 2747): 0
CCc1cnn2c(NCc3ccc[n+]([O-])c3)cc(N3CCCC[C@H]3CCO)nc12 [dinaciclib] | 0.1874 | 1.735 | 1.49 | – | – | – | – | 1.778 | 2.886 | 0.2646 | – | – | – | 0.2578 | 0.8564 | 2.005 | 0.4014 | 0.7191 | 1.48 | 2.038 | TatRev/PolyA (participant 2027): 0.1946; LLTR/TAR (participant 2161): 1.155; TatRev/PolyA (participant 2161): 1.061; PolyA/LLTR (participant 2461): 3.944
